Key:
Assay type in all cases: in vivo, human
[1] = tested on: newly diagnosed elderly patients with poor risk AML; assay: Tipifarnib clinical study in newly diagnosed elderly patients with poor risk AML; conditions: for PFS: N=34
Procedure: (§1) Clinical studies with tipifarnib were performed in newly diagnosed elderly patients with poor risk AML or relapsed and refractory AML. In these studies, patient selection was not based on genetic markers. Anecdotal evidence of tipifarnib single agent activity was reported.
Patient subset—available AML marrow samples with NRAS WT or unknown, N=27 (NCBI GEO, GSE8970).
Since achievement of CR is the main driver of clinical benefit in AML, additional screenings were conducted to differentiate the CR responses vs HI/SD responses in the higher RHOE expression levels subset of FIG. 3A (replicated in FIG. 4A).
Another screening conducted to differentiate the CR responses and HI/SD responses from PD responses was based on both RHOE expression levels and RHOA expression levels of the subjects shown in FIG. 3A (replicated in FIG. 5). RHOA mRNA expression data was generated by RNASeq and expressed as RNA Seq V2 RSEM.
The mRNA expression profiling data from the clinical study with newly diagnosed elderly patients with poor risk AML were also analyzed for CXCR3, CXCL12, and RHOE. Patient subset—available AML marrow samples with NRAS WT, unknown, N-12, N12/N13, or N61 (1,2); N=34. […] Probe 207681 used for CXCR3 in the GPL96 Affimetrix microarray. The combination of the CXCR3 expression levels and CXC12 expression levels of newly-diagnosed elderly, frail AML patients, also correlated with treatment response. In particular, the product (multiplication) of the CXCR3 (“receptor”) expression levels and the CXCL12 (“ligand”) expression levels further differentiated the CR and HI/SD responses from the PD responses in the AML patients treated with tipifarnib. […] PFS in the high CXCL12×CXCR3 product subset was 433 days vs. 64 days in the low expressing product subset (HR=0.24, p=0.005, N=34).

[2] = tested on: relapsed and refractory AML patients; assay: Tipifarnib clinical study in relapsed and refractory AML patients
Procedure: as §1

[3] = tested on: relapsed/refractory CMML patients; assay: Tipifarnib clinical study in relapsed/refractory CMML patients
Procedure: Clinical studies with tipifarnib were performed in relapsed/refractory CMML patients (N=20) receiving tipifarnib as a single agent orally, twice a day (bid) for 7 days in alternating weeks (Days 1-7 and 15-21) in 28 day cycles. Eligible patients received tipifarnib administered at a starting dose of 1200 mg or 900 mg, orally with food, bid for 7 days in alternating weeks (Days 1-7 and 15-21) in 28 day cycles. Stepwise 300 mg dose reductions to control treatment-related, treatment-emergent toxicities were allowed.
Inclusion Criteria for this clinical study include: (a) diagnosis of CMML as defined by the World Health Organization (WHO) criteria; (b) Eastern Cooperative Oncology Group (ECOG) performance status 0 or 1; (c) subject is willing and able to comply with scheduled visits, treatment plans, laboratory tests and other procedures (including bone marrow assessments); (d) at least 1 week since the last systemic therapy regimen prior to Cycle 1 Day 1, subjects on a stable dose of hydroxyurea for at least 2 weeks prior to Cycle 1 Day 1 may continue on hydroxyurea until Cycle 1 Day 7, and subjects must have recovered to NCI CTCAE v. […] Both females and male subjects with female partners of child-bearing potential must agree to use an adequate method of contraception for 2 weeks prior to screening, during, and at least 4 weeks after last dose of study medication. Female subjects must have a negative serum or urine pregnancy test within 72 hours prior to start of study medication. Not breast feeding at any time during the study; and (h) written and voluntary informed consent understood, signed and dated. […]

[4] = higher pre-treatment CXCL12xCXCR3 product levels (20,000 or more) (FIG. 7)
[5] = lower RHOE expression levels (FIG. 3A)
[6] = lower pre-treatment CXCL12xCXCR3 product levels (less than 20,000) (FIG. 7)

With `Cn1cncc1[C@@](N)(c1ccc(Cl)cc1)c1ccc2c(c1)c(-c1cccc(Cl)c1)cc(=O)n2C` [tipifarnib] the “median progression free survival” value ([1]; CXCR3 expression levels in the first quartile (FIG. 9)) was “about 10 days”, the “median progression free survival” value ([1]; CXCR3 expression levels in the fourth quartile, p=0.0004 (FIG. 9)) was 406 days and the “median progression free survival” value ([1]; CXCR3 expression levels in the second quartile (FIG. 9)) was “about 70 days”. The “median progression free survival” value ([1]; CXCR3 expression levels in the third quartile (FIG. 9)) was 248 days, the “median progression free survival” value ([1]; RND3 expression levels greater than or equal to 144 (higher RHOE) (FIG. 3B)) was 8.2 months and the “median progression free survival” value ([1]; RND3 expression levels less than 144 (lower RHOE) (FIG. 3B)) was 2.2 months. For the same molecule, the PFS ([1]; high CXCL12xCXCR3 product subset) was 433 days, the PD responses ([1]; higher RHOE expression levels (FIG. 3A)) was 1 out of 14 and the CR responses [1, 4] was 8 out of 14 subjects. For the same molecule, the PD responses [1, 4] was 0 out of 14, the SD/HI responses [1, 4] was 6 out of 14 subjects and the PFS ([1]; low expressing CXCL12xCXCR3 product subset) was 64 days. For the same molecule, the CR responses [1, 5] was 0 out of 13 subjects, the PD responses [1, 5] was 7 out of 13 subjects and the CR responses [1, 6] was 1 out of 20 subjects. For the same molecule, the PD responses [1, 6] was 13 out of 20 subjects, the SD/HI responses [1, 6] was 6 out of 20 subjects and the “HR (PFS, high vs low CXCL12xCXCR3 product subset)” value ([1]; p=0.005, N=34) was 0.24. For the same molecule, the CR responses ([1]; treatment naive elderly, frail AML patients with higher RHOE expression levels (FIG. 3A)) was 8 out of 14 subjects, the mPFS percentage ([2]; CXCR3 expression levels in the first tertiale, N=58 (FIG. 10)) was 54 days and the mPFS percentage ([2]; CXCR3 expression levels in the second tertiale, N=58 (FIG. 10)) was 75 days. For the same molecule, the mPFS percentage ([2]; CXCR3 expression levels in the third tertiale, N=58, p=0.009 (FIG. 10)) was 182 days, the “median Time to Treatment Failure (TTF)” value ([3]; tertiale 1 (lowest PRICKLE2 expression), tipifarnib single agent (FIG. 11)) was 99 days and the “median Time to Treatment Failure (TTF)” value ([3]; tertiale 2 of PRICKLE2 expression, tipifarnib single agent (FIG. 11)) was 84 days. For the same molecule, the “median Time to Treatment Failure (TTF)” value ([3]; tertiale 3 (highest PRICKLE2 expression), tipifarnib single agent, p=0.047 vs tertiale 1 (FIG. 11)) was 288 days.

Reference: US20220142983A1, “METHODS OF TREATING CANCER WITH FARNESYLTRANSFERASE INHIBITORS” (Kura Oncology, Inc., priority 2019, published 2022)
